Data on five compounds can be found in patent US20070128665A1, “Methods for identifying compounds interacting with small membrane-bound gtp-ases” (priority 2003, published 2007).

For assay [1], the system named is membrane bound active Ras (H-Ras). Nature of the assay: RAPID assay (Ras Activity Probe for Inhibitor Detection), GFP-RBD reporter, COS-7 cells. Format: cell-based. The following applies: 50 μM ATP. How it is done: COS-7 cells were grown in DMEM supplemented with 10% FCS. The day before transfection cells were seeded out on 6-well tissue culture plates containing 22 mm circular glass coverslips to obtain a confluency of 50-60% prior to transfection. DNA constructs (pcDNA3.1 H-Ras, pEGFP-C3 RBD and optionally pCl-neo CAPRI) were incubated with Genejuice (Novagen) according to manufacturers instructions and added to the cell medium to transfect (lipofect) cells. 24 hours later coverslips were mounted in a heated stage (37° C.) in KH buffer [5 mM HEPES, 10 mM glucose, 25 mM NaHCO3 1.2 mM K2HPO4, 118 mM NaCl, 4.7 mM KCl, 1.2 mM MgSO4, 1.3 mM CaCl2 (pH 7.4)]. Nipkow confocal microscopy was performed using a PerkinElmer UltraView LCI system to image GFP. […] Inhibition of Ras activation, or deactivation of active Ras, was detected by dissociation of the fluorescent […] reporter from the plasma and/or Golgi membranes, into the cytosol. This was seen as a loss of fluorescent signal from the membrane/increase in fluorescent signal in the cytosol.
The inverse relative change in fluorescence intensity at a given time point is expressed as, 1−(cytosolic fluorescence intensity/maximum experimental cytosolic fluorescence intensity)
(§1) Relative Dissociation=maximal pixel intensity of cytosolic ROI (usually at time zero) divided by the cytosolic ROI at time x during the experiment.

For assay [2] the test system is unchanged. Nature of the assay: GFP-RBD dissociation in H-Ras transfected CHO.T cells. The assay is classed as cell-based. The following applies: ATP 50 μM. An excerpt: FIG. 6. […] GFP-RBD is localised to the plasma membrane and endomembranes in non-starved, H-Ras transfected CHO.T cells.
The next assay concerns CAPRI C2A/C2B domains. Nature of the assay: GFP-C2A/C2B localisation, live confocal microscopy, COS-7 cells. Format: cell-based. How it is done: Experiments were performed to assess expression of GFP-C2A/C2B domain COS-7 cells imaged by live confocal microscopy. Cells were transfected with GFP-C2A/C2B vector by lipofection and imaged 24 hours later. […] Nuclear GFP-C2A/C2B is diffusely localised throughout the nucleoplasm before stimulation (due to size of the fusion protein). […] The stimulated association/disassociation of these structures are probably due to a specific interaction with endogenous entities near the plasma membrane and within the perinuclear region, rather than non-specific aggregation (see 20 second image).

The next assay has as its system CAPRI. Nature of the assay: GFP-CAPRI translocation assay, live confocal imaging, HeLa cells. The assay is classed as cell-based. The following applies: HeLa cells expressing GFP-C2B; carbachol stimulation. How it is done:
The ability of the activating peptide to induce translocation of CAPRI to the plasma membrane can be monitored by applying cell-permeable peptide to live cells expressing GFP-tagged CAPRI imaged by confocal or wide-field microscopy. Experiments were performed to assess expression of GFP-C2B compared with GFP-CAPRI in HeLa cells 24 hrs after transient transfection by lipofection. Live imaging was performed by confocal microscopy. The results are shown in FIG. 3, the image for GFP-C2B is shown on the left hand side, GFP-CAPRI images at 0 s, 30 s and 60 s are shown on the right. Cells expressing GFP-CAPRI were stimulated with carbachol to mobilise intracellular Ca^2+, time=seconds after stimulation. […] CAPRI activating peptides induce the translocation of GFP-CAPRI to the plasma membrane in the absence of agonist stimulation.

The test system of assay [3] is membrane bound active Ras (H-Ras). The settings on record: 100 μM histamine.
Excerpt: FIG. 9. […] Dissociation of the RBD from the plasma membrane is expressed as Relative Dissociation=maximal pixel intensity of cytosolic ROI (usually at time zero) divided by the cytosolic ROI at time x during the experiment.
as §1

Read-outs that look alike come from different tables or passages of the source.

As to `Nc1ncnc2c1ncn2[C@@H]1O[C@H](COP(=O)(O)OP(=O)(O)OP(=O)(O)O)[C@@H](O)[C@H]1O` [ATP], the “deactivation of Ras (GFP-RBD dissociation), control cells” value in assay [1] (COS cells transfected with H-Ras and GFP-RBD only, or GAP-dead CAPRI (R47S mutant)) is given as “no detectable deactivation”. In assay [1] (non-starved COS-7 transfected with H-Ras, GFP-RBD and CAPRI), the “dissociation of GFP-RBD from the plasma membrane (Ras deactivation)” value was “rapid dissociation of the GFP-RBD exclusively from the plasma membrane”. Also, the “deactivation of Ras at the plasma membrane (GFP-RBD dissociation)” value in assay [2] (CHO cells stably expressing CAPRI, H-Ras transfected, non-starved) was “rapid deactivation of Ras at the plasma membrane”. Besides, in assay [2] (parental CHO.T cells), the “GFP-RBD dissociation, parental cells” value is “No such dissociation”.
As for `O=C(O)CN(CCOCCOCCN(CC(=O)O)CC(=O)O)CC(=O)O` [EGTA], in the assay with CAPRI C2A/C2B domains (COS-7 cells after ionomycin, 5 μM EGTA in extracellular medium), the “dissociation of GFP-C2A/C2B chimera from the membrane” value is “rapid dissociation of the GFP-C2A/C2B chimera from the membrane into the cytosol and nucleoplasm”.
In the case of `C[N+](C)(C)CCOC(N)=O` [carbachol], the GFP-C2B localisation result in the assay on CAPRI is “No detectable effect”.
For `NCCc1c[nH]cn1` [histamine], in assay [3] (HeLa cells transfected with H-Ras and GFP-RBD only, or GAP-dead CAPRI (R47S mutant)), the “deactivation of Ras (GFP-RBD dissociation), control cells” value is “no detectable deactivation”. Also, in assay [3] (non-starved HeLa transfected with H-Ras, GFP-RBD and CAPRI), the “dissociation of GFP-RBD from the plasma membrane (Ras deactivation)” value is “rapid dissociation of the GFP-RBD from the plasma membrane”.
With `C[C@H](CCC(=O)O)C[C@H](C)C[C@H](C)C(=O)/C=C(\O)[C@H](C)C[C@H](C)C/C=C/[C@@H](C)[C@@H](O)[C@@H](C)[C@@H](O)C[C@@H]1CC[C@@](C)([C@H]2CC[C@@](C)([C@@H](C)O)O2)O1` [ionomycin], the “redistribution of GFP-C2A/C2B chimera” value in the assay on CAPRI C2A/C2B domains (COS-7 cells, ionomycin stimulation) is recorded as “forms punctate vesicular structures under the plasma membrane”.
